Assay results taken from ChEMBL document CHEMBL2311538, “Discovery of a class of novel tankyrase inhibitors that bind to both the nicotinamide pocket and the induced pocket” (J Med Chem, 2013).

Tests used:
[1] = biological target: T1, Poly [ADP-ribose] polymerase tankyrase-2 (Homo sapiens, UniProt Q9H2K2); test: Inhibition of N-terminal His6-tagged human TNKS2 (946 to 1162 amino acid residues) after 60 mins by autoparsylation assay
T1 sequence (Q9H2K2 whole entry): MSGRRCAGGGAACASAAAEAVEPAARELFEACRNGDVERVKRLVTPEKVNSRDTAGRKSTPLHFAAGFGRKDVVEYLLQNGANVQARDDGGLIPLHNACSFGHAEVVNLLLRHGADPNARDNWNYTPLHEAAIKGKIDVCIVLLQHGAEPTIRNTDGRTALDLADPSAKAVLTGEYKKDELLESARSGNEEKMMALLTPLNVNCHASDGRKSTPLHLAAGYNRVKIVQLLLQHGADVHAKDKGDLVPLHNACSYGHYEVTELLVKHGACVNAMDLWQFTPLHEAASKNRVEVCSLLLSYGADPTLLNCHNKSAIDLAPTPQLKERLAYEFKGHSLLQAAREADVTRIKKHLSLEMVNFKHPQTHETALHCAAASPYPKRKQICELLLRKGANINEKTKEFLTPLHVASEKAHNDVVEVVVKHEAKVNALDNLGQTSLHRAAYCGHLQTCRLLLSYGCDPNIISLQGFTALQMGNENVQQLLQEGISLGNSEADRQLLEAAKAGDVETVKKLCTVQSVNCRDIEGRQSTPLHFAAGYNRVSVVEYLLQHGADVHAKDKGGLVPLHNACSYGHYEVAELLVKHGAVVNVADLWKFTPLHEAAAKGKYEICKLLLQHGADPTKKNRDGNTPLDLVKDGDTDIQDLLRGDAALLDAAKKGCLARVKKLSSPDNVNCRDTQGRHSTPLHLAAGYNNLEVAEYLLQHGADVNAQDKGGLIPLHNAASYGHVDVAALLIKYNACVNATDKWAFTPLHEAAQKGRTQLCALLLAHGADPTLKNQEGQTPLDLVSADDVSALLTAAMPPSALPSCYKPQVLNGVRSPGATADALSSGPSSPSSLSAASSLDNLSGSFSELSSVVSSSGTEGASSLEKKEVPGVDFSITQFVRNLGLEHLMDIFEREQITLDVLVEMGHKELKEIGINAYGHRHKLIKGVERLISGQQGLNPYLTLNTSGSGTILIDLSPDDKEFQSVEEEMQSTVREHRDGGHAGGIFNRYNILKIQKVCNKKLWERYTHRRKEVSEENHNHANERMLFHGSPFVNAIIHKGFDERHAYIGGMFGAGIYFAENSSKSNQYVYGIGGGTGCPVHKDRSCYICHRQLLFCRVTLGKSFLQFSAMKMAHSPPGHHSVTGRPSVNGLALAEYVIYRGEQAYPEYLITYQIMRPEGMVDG

[2] = biological target: T2, Poly [ADP-ribose] polymerase tankyrase-1 (Homo sapiens, UniProt O95271)
T2 sequence (O95271 whole entry): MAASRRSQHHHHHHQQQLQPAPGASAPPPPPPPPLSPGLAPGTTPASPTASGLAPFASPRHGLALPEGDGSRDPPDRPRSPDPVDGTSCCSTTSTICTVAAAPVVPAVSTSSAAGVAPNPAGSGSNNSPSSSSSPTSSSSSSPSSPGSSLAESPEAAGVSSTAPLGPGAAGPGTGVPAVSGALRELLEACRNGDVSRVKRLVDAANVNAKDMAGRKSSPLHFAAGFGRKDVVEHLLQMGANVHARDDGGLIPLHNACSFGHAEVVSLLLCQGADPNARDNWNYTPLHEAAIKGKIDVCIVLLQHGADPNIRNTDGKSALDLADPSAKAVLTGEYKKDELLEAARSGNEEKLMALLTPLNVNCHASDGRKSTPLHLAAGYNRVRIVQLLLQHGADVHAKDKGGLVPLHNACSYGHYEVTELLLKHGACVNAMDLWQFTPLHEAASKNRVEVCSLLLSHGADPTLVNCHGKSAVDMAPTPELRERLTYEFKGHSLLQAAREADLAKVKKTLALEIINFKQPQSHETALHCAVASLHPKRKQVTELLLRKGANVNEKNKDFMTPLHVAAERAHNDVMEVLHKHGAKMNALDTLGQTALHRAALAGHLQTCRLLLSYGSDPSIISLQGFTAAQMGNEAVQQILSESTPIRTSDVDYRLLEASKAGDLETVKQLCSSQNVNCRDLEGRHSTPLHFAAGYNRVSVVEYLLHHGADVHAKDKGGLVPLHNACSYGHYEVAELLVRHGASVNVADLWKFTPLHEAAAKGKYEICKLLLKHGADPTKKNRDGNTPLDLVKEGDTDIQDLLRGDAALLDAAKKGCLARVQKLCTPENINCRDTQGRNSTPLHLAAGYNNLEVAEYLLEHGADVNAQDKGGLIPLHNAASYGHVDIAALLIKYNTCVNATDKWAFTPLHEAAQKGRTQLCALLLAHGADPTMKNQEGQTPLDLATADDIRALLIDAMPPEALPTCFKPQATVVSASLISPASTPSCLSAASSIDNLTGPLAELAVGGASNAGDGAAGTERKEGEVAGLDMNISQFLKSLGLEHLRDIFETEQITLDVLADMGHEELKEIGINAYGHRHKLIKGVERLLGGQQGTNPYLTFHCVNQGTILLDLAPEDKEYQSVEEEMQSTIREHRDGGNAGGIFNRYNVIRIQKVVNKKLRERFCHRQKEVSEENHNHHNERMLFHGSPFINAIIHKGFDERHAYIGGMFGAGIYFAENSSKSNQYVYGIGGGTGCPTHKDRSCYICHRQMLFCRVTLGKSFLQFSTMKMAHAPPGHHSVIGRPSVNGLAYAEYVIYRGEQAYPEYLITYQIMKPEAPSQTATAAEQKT

[3] = biological target: T3, Tankyrase 1/2 (Homo sapiens, UniProt Q9H2K2+O95271); conditions: hek293
T3 sequence (Q9H2K2 whole entry): T1 sequence (Q9H2K2 whole entry)
T3 sequence (O95271 whole entry): T2 sequence (O95271 whole entry)

[4] = biological target: Poly [ADP-ribose] polymerase 2 (Homo sapiens, UniProt Q9UGN5); test: Inhibition of PARP2 (unknown origin)
Poly [ADP-ribose] polymerase 2, sequence (Q9UGN5 whole entry): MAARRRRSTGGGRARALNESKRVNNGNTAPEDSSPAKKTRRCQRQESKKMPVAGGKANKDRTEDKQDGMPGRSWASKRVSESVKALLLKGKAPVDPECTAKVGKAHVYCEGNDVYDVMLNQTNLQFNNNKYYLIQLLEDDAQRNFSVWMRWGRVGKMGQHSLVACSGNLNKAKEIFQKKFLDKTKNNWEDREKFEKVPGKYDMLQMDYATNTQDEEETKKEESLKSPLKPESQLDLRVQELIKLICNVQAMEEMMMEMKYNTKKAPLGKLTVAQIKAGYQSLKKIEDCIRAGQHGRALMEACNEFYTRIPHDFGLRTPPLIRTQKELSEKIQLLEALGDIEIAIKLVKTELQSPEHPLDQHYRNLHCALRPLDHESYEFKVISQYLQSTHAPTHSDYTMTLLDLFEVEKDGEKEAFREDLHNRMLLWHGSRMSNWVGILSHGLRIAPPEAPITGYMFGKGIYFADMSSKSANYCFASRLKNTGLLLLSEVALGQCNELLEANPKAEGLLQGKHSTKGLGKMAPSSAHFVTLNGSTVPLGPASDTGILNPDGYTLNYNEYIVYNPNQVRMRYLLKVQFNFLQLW

In the case of `Cc1ccnc2c(NC(=O)c3ccc(N4C(=O)[C@@H]5[C@H](C4=O)[C@@H]4C=C[C@H]5C4)cc3)cccc12`, the IC50 [1] is reported as 36 nM, the IC50 [2] is reported as 192 nM and the IC50 [3] is reported as 163000 nM.

`COc1ccccc1NC(=O)c1ccc(NC(=O)CCc2nc3ccccc3c(=O)[nH]2)cc1` gave an IC50 [4] of 931 nM and an IC50 [2] of 8 nM.
